Assay results as given in US9085575B2, “Tri- and tetracyclic pyrazolo[3,4-B]pyridine compounds as antineoplastic agent” (PIERRE FABRE MEDICAMENT, priority 2011, dated 2015).

target: ALK (Homo sapiens, UniProt Q9UM73); experiment: Test for measurement of ALK inhibition (ELISA, GST-PLCγ1 substrate, luminescence); assay type: biochemical; conditions: comparative tests; read-out: Alk enzymatic inhibition (IC50)
Experimental: Test for Measurement of ALK Inhibition
A ViewPlate microplate (Packard) is incubated with 0.1 mg/ml GST-PLCγ1 substrate (purified recombinant form) in phosphate buffer (PBS, pH 7.4) (100 μl/well) for one hour under stirring. The plate is then saturated with blocking solution comprising 5% bovine serum albumin (BSA) (Sigma) in PBS buffer, pH 7.4.
After having added the inhibitor at the desired final concentration (typical range between 30 μM and 10 nM), the reaction is carried out by adding 180 ng/ml ALK to a reaction buffer comprised of 13 mM Tris, pH 7.5 (Sigma); 6.5 mM MgCl2 (Merck); 0.65 mM dithiothreitol (DTT) (Acros); 39 mM sodium β-glycerophosphate (TCI); 0.65 mM sodium orthovanadate (Sigma); and 250 μM ATP (Sigma). Incubation is carried out for 30 minutes at 30° C. under stirring.
After three washings under stirring in 0.1% PBS/Tween-20 buffer (Sigma), an anti-phosphotyrosine antibody, coupled with HRP (UBI) diluted to 1/1000 in 5 mg/ml PBS/BSA buffer, is incubated for one hour with stirring. After three new washings in 0.1% PBS/Tween-20, the wells are incubated for two minutes with 100 μl of SuperSignal ELISA mixture (Pierce).
The signal is read in luminescence mode using a luminometer (SpectraMax M5e, Molecular Devices).

ALK, sequence (Q9UM73 19-1620): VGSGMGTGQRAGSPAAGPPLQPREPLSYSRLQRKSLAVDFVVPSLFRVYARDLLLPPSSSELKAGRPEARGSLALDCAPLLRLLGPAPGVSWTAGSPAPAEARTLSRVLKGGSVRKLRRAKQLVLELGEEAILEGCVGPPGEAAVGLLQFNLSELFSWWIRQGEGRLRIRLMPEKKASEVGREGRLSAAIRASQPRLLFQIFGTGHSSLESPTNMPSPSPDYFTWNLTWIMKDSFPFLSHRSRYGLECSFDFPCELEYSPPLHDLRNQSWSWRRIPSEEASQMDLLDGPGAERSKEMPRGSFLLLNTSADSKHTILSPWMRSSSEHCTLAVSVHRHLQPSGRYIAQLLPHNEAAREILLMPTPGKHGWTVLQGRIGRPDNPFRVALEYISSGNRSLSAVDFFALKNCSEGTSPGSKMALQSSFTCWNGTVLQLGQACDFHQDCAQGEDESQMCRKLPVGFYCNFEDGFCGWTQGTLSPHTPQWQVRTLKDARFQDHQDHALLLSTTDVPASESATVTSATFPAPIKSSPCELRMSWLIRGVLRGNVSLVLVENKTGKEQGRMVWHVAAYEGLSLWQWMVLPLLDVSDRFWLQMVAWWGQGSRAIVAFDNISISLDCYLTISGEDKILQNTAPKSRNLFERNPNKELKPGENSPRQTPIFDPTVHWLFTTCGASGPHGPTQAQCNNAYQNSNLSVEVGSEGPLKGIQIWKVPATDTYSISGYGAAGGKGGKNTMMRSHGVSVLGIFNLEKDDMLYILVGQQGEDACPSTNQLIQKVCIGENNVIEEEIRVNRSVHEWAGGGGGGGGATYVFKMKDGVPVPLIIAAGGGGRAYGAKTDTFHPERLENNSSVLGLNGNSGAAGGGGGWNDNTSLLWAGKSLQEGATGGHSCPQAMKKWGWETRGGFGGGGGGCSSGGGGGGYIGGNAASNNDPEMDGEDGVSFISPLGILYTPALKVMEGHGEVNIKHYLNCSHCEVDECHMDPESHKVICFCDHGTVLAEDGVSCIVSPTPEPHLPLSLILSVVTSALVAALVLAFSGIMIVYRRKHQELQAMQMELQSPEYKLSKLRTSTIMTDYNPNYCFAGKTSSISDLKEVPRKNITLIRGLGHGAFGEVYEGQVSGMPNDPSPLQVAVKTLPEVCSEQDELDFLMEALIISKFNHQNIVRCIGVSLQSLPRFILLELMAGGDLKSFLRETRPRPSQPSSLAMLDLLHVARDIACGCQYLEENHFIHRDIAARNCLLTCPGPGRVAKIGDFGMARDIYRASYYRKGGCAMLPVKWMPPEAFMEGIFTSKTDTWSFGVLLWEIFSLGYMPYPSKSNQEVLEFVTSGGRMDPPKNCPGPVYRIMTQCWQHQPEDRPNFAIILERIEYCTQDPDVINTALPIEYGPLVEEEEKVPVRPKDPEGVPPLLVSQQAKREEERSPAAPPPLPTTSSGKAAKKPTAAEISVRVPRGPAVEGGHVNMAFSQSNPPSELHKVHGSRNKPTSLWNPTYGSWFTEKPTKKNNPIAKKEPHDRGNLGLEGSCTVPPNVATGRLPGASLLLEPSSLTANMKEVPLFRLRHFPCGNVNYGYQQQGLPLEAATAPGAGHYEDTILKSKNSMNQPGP

**Q.** How did the IC50 turn out when `Cc1n[nH]c2nc(-c3ccc(O)cc3)c3ccccc3c12` [Comparative compound 98, reference compound] was run?
**A.** 70 nM

**Q.** With `Cc1n[nH]c2nc(-c3ccc(O)cc3)c3c(=O)[nH]c4ccccc4c3c12` [Compound 02] as the compound, how does the IC50 read?
**A.** 2.5 nM

**Q.** Which IC50 does the source give for `Cc1n[nH]c2nc(-c3ccc(O)cc3)c3cnc4ccccc4c3c12` [Compound 06] here?
**A.** 35 nM

same assay, conditions: enzymatic IC50 on ALK, 250 μM ATP, class symbols; read-out: IC50 (ALK)

**Q.** How did the IC50 turn out when `Cc1cc2c(o1)-c1c(c(-c3ccc(O)cc3)nc3[nH]nc(C)c13)C2=O` [Compound 01] was run?
**A.** < 100 nM

**Q.** For `Cc1n[nH]c2nc(-c3ccc(O)cc3)c3c(=O)[nH]c4ccccc4c3c12` [Compound 02], which IC50 is on record?
**A.** < 100 nM

**Q.** `O=C1c2cc(N3CCNCC3)ccc2-c2c1c(-c1c(F)ccc(F)c1F)nc1[nH]nc(-c3cccs3)c21` [Compound 03] was tested. Which IC50 did it give?
**A.** 1000 to 10000 nM

**Q.** For `Cc1n[nH]c2nc(-c3ccc(O)cc3)c3c(=O)[nH]c4cc(N5CCNCC5)ccc4c3c12` [Compound 04], which IC50 is on record?
**A.** < 100 nM

**Q.** With `O=c1[nH]c2ccccc2c2c1c(-c1ccc(O)cc1)nc1[nH]nc(-c3ccc(N4CCNCC4)cc3)c12` [Compound 05] as the compound, how does the IC50 read?
**A.** < 100 nM

**Q.** With `Cc1n[nH]c2nc(-c3ccc(O)cc3)c3c(=O)n(CCCN(C)C)c4ccccc4c3c12` [Compound 07] as the compound, how does the IC50 read?
**A.** < 100 nM

**Q.** Which IC50 does the source give for `COc1ccc(-c2nc3[nH]nc(C)c3c3c2c(=O)oc2ccccc23)cc1` [Compound 08] here?
**A.** 1000 to 10000 nM

**Q.** `Cc1n[nH]c2nc(-c3ccc(O)cc3)c3c(=O)oc4ccccc4c3c12` [Compound 09] was tested. Which IC50 did it give?
**A.** 100 to 1000 nM

**Q.** `Cc1n[nH]c2nc(-c3ccc(O)cc3)c3c(=O)n(CCCN4CCN(C)CC4)c4ccccc4c3c12` [Compound 10] was tested. Which IC50 did it give?
**A.** < 100 nM

**Q.** With `Cc1n[nH]c2nc(-c3ccc(O)cc3)c3c(=O)[nH]c4cc(N5CC[C@@H](N)C5)ccc4c3c12` [Compound 11] as the compound, how does the IC50 read?
**A.** < 100 nM

**Q.** For `Cc1n[nH]c2nc(-c3ccc(O)cc3)c3c(=O)n(CCCN(C)C)c4cc(N5CCNCC5)ccc4c3c12` [Compound 12], which IC50 is on record?
**A.** < 100 nM

**Q.** `Cc1n[nH]c2nc(-c3ccc(O)cc3)c3c(=O)[nH]c4cc(OCCCN5CCNCC5)ccc4c3c12` [Compound 13] was tested. Which IC50 did it give?
**A.** < 100 nM

**Q.** With `Cc1n[nH]c2nc(-c3ccc(O)cc3)c3c(=O)n(CCCN4CC[C@@H](N)C4)c4ccccc4c3c12` [Compound 14] as the compound, how does the IC50 read?
**A.** < 100 nM

**Q.** Which IC50 does the source give for `Cc1n[nH]c2nc(-c3ccc(O)cc3)c3c(=O)n(CCN4CCNCC4)c4ccccc4c3c12` [Compound 15] here?
**A.** 100 to 1000 nM

**Q.** For `O=c1[nH]c2cc(N3CCNCC3)ccc2c2c1c(-c1ccc(O)cc1)nc1[nH]nc(-c3ccco3)c12` [Compound 16], which IC50 is on record?
**A.** < 100 nM

**Q.** How did the IC50 turn out when `CC(=O)Oc1ccc(-c2nc3[nH]nc(C)c3c3c2c(=O)[nH]c2cc(N4CCNCC4)ccc23)cc1` [Compound 17] was run?
**A.** < 100 nM

**Q.** Which IC50 does the source give for `Cc1n[nH]c2nc(-c3ccc(O)cc3)c3c(=O)[nH]c4cc(N5CCC(N)CC5)ccc4c3c12` [Compound 18] here?
**A.** < 100 nM

**Q.** For `CCOc1ccc(-c2nc3[nH]nc(C)c3c3c2c(=O)[nH]c2cc(N4CCNCC4)ccc23)cc1` [Compound 19], which IC50 is on record?
**A.** < 100 nM

**Q.** Which IC50 does the source give for `CCn1c(=O)c2c(-c3ccc(O)cc3)nc3[nH]nc(C)c3c2c2ccc(N3CCNCC3)cc21` [Compound 20] here?
**A.** < 100 nM

**Q.** How did the IC50 turn out when `Cc1n[nH]c2nc(-c3ccc(O)cc3)c3c(=O)[nH]c4cc(N5CCN(C6CCN(C)CC6)CC5)ccc4c3c12` [Compound 21] was run?
**A.** < 100 nM

**Q.** How did the IC50 turn out when `COc1ccc(-c2nc3[nH]nc(N)c3c3c2c(=O)[nH]c2ccc(N4CCNCC4)cc23)cc1` [Compound 22] was run?
**A.** 1000 to 10000 nM

**Q.** How did the IC50 turn out when `CC(=O)Nc1n[nH]c2nc(-c3ccc(O)cc3)c3c(=O)[nH]c4ccccc4c3c12` [Compound 23] was run?
**A.** < 100 nM

**Q.** For `Nc1n[nH]c2nc(-c3ccc(O)cc3)c3c(=O)[nH]c4ccccc4c3c12` [Compound 24], which IC50 is on record?
**A.** < 100 nM

**Q.** With `Nc1n[nH]c2nc(-c3ccc(O)cc3)c3c(=O)[nH]c4ccc(N5CCNCC5)cc4c3c12` [Compound 25] as the compound, how does the IC50 read?
**A.** < 100 nM

**Q.** For `Cc1n[nH]c2nc(-c3ccc(O)c(C(=O)O)c3)c3c(=O)[nH]c4cc(N5CCNCC5)ccc4c3c12` [Compound 27], which IC50 is on record?
**A.** 1000 to 10000 nM

**Q.** For `Cc1n[nH]c2nc(-c3ccc(O)cc3)c3c(=O)oc(-c4ccccc4)cc3c12` [Compound 28], which IC50 is on record?
**A.** 100 to 1000 nM

**Q.** Which IC50 does the source give for `Cc1n[nH]c2nc(-c3cc(O)cc(F)c3)c3c(=O)[nH]c4cc(N5CCNCC5)ccc4c3c12` [Compound 30] here?
**A.** < 100 nM

**Q.** Which IC50 does the source give for `Cc1n[nH]c2nc(-c3cc(F)cc(F)c3)c3c(=O)[nH]c4cc(N5CCNCC5)ccc4c3c12` [Compound 31] here?
**A.** 1000 to 10000 nM

**Q.** Which IC50 does the source give for `Nc1n[nH]c2nc(-c3ccc(O)cc3)c3c(=O)[nH]c4cc(N5CCNCC5)ccc4c3c12` [Compound 32] here?
**A.** < 100 nM

**Q.** Which IC50 does the source give for `CCOc1cc(F)cc(-c2nc3[nH]nc(C)c3c3c2c(=O)n(CC)c2cc(N4CCNCC4)ccc32)c1` [Compound 33] here?
**A.** < 100 nM

**Q.** How did the IC50 turn out when `Cc1n[nH]c2nc(-c3ccc(O)cc3)c3c(=O)[nH]ccc3c12` [Compound 35] was run?
**A.** 1000 to 10000 nM

**Q.** For `Nc1n[nH]c2nc(-c3cc(F)cc(F)c3)c3c(=O)[nH]c4cc(N5CCNCC5)ccc4c3c12` [Compound 36], which IC50 is on record?
**A.** 1000 to 10000 nM

**Q.** With `CCn1c(=O)c2c(-c3ccc(O)cc3)nc3[nH]nc(N)c3c2c2ccc(N3CCNCC3)cc21` [Compound 37] as the compound, how does the IC50 read?
**A.** < 100 nM

**Q.** How did the IC50 turn out when `Nc1n[nH]c2nc(-c3ccc(O)cc3F)c3c(=O)[nH]c4ccccc4c3c12` [Compound 38] was run?
**A.** < 100 nM

**Q.** For `Nc1n[nH]c2nc(-c3ccc(O)cc3)c3c(=O)[nH]ccc3c12` [Compound 39], which IC50 is on record?
**A.** 1000 to 10000 nM

**Q.** With `Cc1n[nH]c2nc(-c3ccc(O)c(C(F)(F)F)c3)c3c(=O)[nH]c4cc(N5CCNCC5)ccc4c3c12` [Compound 41] as the compound, how does the IC50 read?
**A.** 100 to 1000 nM

**Q.** Which IC50 does the source give for `Nc1n[nH]c2nc(-c3ccc(O)cc3)c3c(=O)n(O)c4ccccc4c3c12` [Compound 42] here?
**A.** < 100 nM

**Q.** How did the IC50 turn out when `CCn1ccc2c(c(-c3ccc(O)cc3)nc3[nH]nc(C)c32)c1=O` [Compound 44] was run?
**A.** 1000 to 10000 nM

**Q.** Which IC50 does the source give for `Cn1ccc2c(c(-c3cc(F)cc(F)c3)nc3[nH]nc(N)c32)c1=O` [Compound 45] here?
**A.** 1000 to 10000 nM

**Q.** With `CCn1c(=O)c2c(-c3ccc(O)c(C(F)(F)F)c3)nc3[nH]nc(C)c3c2c2ccc(N3CCNCC3)cc21` [Compound 46] as the compound, how does the IC50 read?
**A.** < 100 nM

**Q.** Which IC50 does the source give for `CCOc1nc2cc(N3CCNCC3)ccc2c2c1c(-c1ccc(O)c(C(F)(F)F)c1)nc1[nH]nc(C)c12` [Compound 47] here?
**A.** 100 to 1000 nM

**Q.** How did the IC50 turn out when `CCOC(=O)Oc1ccc(-c2nc3c(c(C)nn3C(=O)OCC)c3c2c(=O)[nH]c2cc(N4CCN(C(=O)OCC)CC4)ccc23)cc1` [Compound 48] was run?
**A.** 1000 to 10000 nM

**Q.** For `CC(=O)Oc1ccc(-c2nc3c(c(C)nn3C(C)=O)c3c2c(=O)[nH]c2cc(N4CCNCC4)ccc23)cc1` [Compound 49], which IC50 is on record?
**A.** < 100 nM

**Q.** For `Cc1nn(C(=O)OC(C)(C)C)c2nc(-c3ccc(OC(=O)C(C)(C)C)cc3)c3c(=O)[nH]c4cc(N5CCN(C(=O)OC(C)(C)C)CC5)ccc4c3c12` [Compound 50], which IC50 is on record?
**A.** 100 to 1000 nM

**Q.** With `COc1ccc(-c2nc3[nH]nc(N)c3c3c2c(=O)[nH]c2cc(N4CCNCC4)ccc23)cc1` [Compound 51] as the compound, how does the IC50 read?
**A.** < 100 nM

**Q.** With `CN1CCN(c2ccc(C(=O)Nc3n[nH]c4nc(-c5ccc(O)cc5)c5c(=O)[nH]c6ccccc6c5c34)cc2)CC1` [Compound 52] as the compound, how does the IC50 read?
**A.** < 100 nM

**Q.** `Cc1n[nH]c2nc(-c3ccc(O)cc3)c3c(c12)CCNC3=O` [Compound 53] was tested. Which IC50 did it give?
**A.** < 100 nM

**Q.** How did the IC50 turn out when `CCn1cc(-c2ccc(N3CCNCC3)cc2)c2c(c(-c3ccc(O)cc3)nc3[nH]nc(N)c32)c1=O` [Compound 54] was run?
**A.** 1000 to 10000 nM

**Q.** How did the IC50 turn out when `CCn1c(=O)c2c(-c3cc(F)cc(F)c3)nc3[nH]nc(N)c3c2c2ccc(N3CCNCC3)cc21` [Compound 55] was run?
**A.** 100 to 1000 nM

system: Karpas 299 cells; experiment: Test for measurement of cell proliferation inhibition (Karpas 299), ATPlite; assay type: cell-based; conditions: Homo sapiens, Karpas 299 cell line, 72 hours
Experimental: Test for Measurement of Cell Prolifearation Inhibition (Karpas 299)
The antiproliferative activity of the compounds according to the invention has been measured by the ATPlite technique (Perkin Ekmer).
Human cells of non-adherent anaplasic large cell lymphoma (Karpas 299) are seeded in 96-well plates (300,000 cells/ml) on day 1, at a concentration compatible with a logarithmic growth for 72 hours necessary for the evaluation of the compounds according to the invention. All the cells are treated on day 1 and then placed in an incubator at 37° C., under a 5% CO2 atmosphere. Cell viability is evaluated on day 4 by dosing the emitted ATP, which is a characteristic of viable cells. IC50s are determined by a non linear regression based on a sigmoidal model of dose/response relationship, the Hill coefficient being let variable, performed with the GraphPad software according to the algorithm provided.

**Q.** For `Cc1n[nH]c2nc(-c3ccc(O)cc3)c3ccccc3c12` [Comparative compound 98, reference compound], which IC50 is on record?
**A.** 4040 nM

**Q.** `Cc1n[nH]c2nc(-c3ccc(O)cc3)c3c(=O)[nH]c4ccccc4c3c12` [Compound 02] was tested. Which IC50 did it give?
**A.** 168 nM

**Q.** `Cc1n[nH]c2nc(-c3ccc(O)cc3)c3cnc4ccccc4c3c12` [Compound 06] was tested. Which IC50 did it give?
**A.** 1000 nM
